For data set [1] the following is noted: sand. From the text:
Mobility it defined as the ability of a chemical to migrate in the environment. Mobility of a chemical in the environment is governed by two factors that include the physical chemistry of the chemical and the physical and chemical characteristics of the geologic environment to which the chemical is released.
To obtain a value to represent the mobility of each compound, two variables are used: Henry's Law constant (H), which focuses on the physical chemistry of the chemical and the retardation factor (R), which focuses on the physical and chemical characteristics of the geological environment. The retardation factor was calculated by first calculating the distribution coefficient using Equation 1. Kd=(Foc)(Koc) where: Kd=distribution coefficient (mL·g^−1); Koc=organic carbon partition coefficient (1/mg); Foc=fraction of organic carbon in soil (mg/mg)
Values for the organic carbon partition coefficient can be obtained from location-specific testing of soil or from various published sources. And the fraction of organic carbon in soil can be obtained from location-specific testing of soil or from various published sources.
Once the distribution coefficient is calculated, the Retardation Factor can be calculated using Equation 2. [formula] where: R is the retardation factor; ρb=bulk density of aquifer matrix (g/cm^3); Kd=distribution coefficient (mL·g^−1); η=effective porosity Henry's Law constant (H) (atm.·mol^−1·m^−3) is a measure of the tendency for organic solutes to volatilize. It is related to vapor pressure (VP) (atm.), molecular weight (MW) (g/mol); and solubility in water (Ws) (g/L) according to Equation (3): H=(VP)/(MW)(Ws) With Henry's Law constant and the retardation factor in place, the mobility of a specific compound is expressed as Equation (4): M=(H)(R) where: M=mobility; H=Henry's Law constant; R=retardation factor

The conditions of data set [2]: oral pathway; more conservative of carcinogenic or chronic value; published sources; cited from earlier work.
For data set [3] the following is noted: published sources; cited from earlier work.

The source of these data is US20070233400A1, “Method of calculating environmental risk of a chemical” (AMSTED Industries Incorporated, priority 2006, published 2007).

As to `c1ccccc1` [benzene], the “mobility factor (M)” value in data set [1] (M=(H)(R)) turned out to be 0.2576. Besides, the “distribution coefficient (Kd)” value in data set [1] (Foc 0.0003 mg/mg, Kd=Foc×Koc) stood at 0.0177 mL/g. In data set [1] (bulk density 1.8 g/cm^3, effective porosity 0.25), the “retardation factor (R)” value turned out to be 1.13. In data set [2], the “toxicity value (T)” value is on record as 0.04 mg/kg-day^−1. Further, the “Henry's Law constant (H)” value in data set [3] was 0.228 atm.·mol^−1·m^−3.
